Data published in PMC7408607, “A Multiple N-Glucosylated Peptide Epitope Efficiently Detecting Antibodies in Multiple Sclerosis” (Brain Sciences, 2020).
Like-named read-outs stand apart in the source and are kept apart here. Residues, ends and D or L forms follow the SMILES beside them. *: point of attachment. NH(β-D-Glc) = OC[C@H]1O[C@@H](N*)[C@H](O)[C@@H](O)[C@@H]1O

System: anti-CSF114(Glc) IgG antibodies from MS patients' serum
Assay: Competitive (inhibition) ELISA on plates coated with CSF114(Glc)
Type: binding, human
Settings: for Log1/IC50 ± Std Error: Table S4, shortened peptides versus CSF114(Glc), one representative positive MS serum
Experimental: Washing steps were executed with an automatic Hydroflex microplate washer (Tecan Italia, Milano, Italy). After five washes with washing buffer containing 0.9% NaCl and 0.05% Tween 20, nonspecific binding sites were blocked with 100 μL per well fetal calf serum (FCS) buffer solution (10% in washing buffer) at room temperature for 60 min.
Antibody affinity was measured following the inhibition methods reported elsewhere. Semi-saturating sera dilution was calculated in preliminary titration curves (absorbance 0.7). Six different concentrations of each synthetic antigenic peptide probe were used as inhibitors. Then, sera samples at the selected dilution were incubated in parallel with increasing concentrations of the synthetic shortened peptide sequences (range 1 × 10^−10 to 1 × 10^−4) for 60 min at room temperature. All inhibition experiments were performed in duplicate or triplicate for each single MS patient’s serum positive to CSF114(Glc) separately. All experiments were repeated at least twice on two different working days.
After three washes, uninhibited antibodies were identified by adding 100 µL/well of alkaline phosphatase-conjugated anti-human immunoglobulin G (IgG, Sigma-Aldrich, Milano, Italy) diluted 1:8000 in washing buffer containing 10% FCS. The microplates were then incubated 3 h at room temperature and, after three washes, 100 µL of substrate solution consisting of 1 mg/mL p-nitrophenyl phosphate (Sigma-Aldrich, Milano, Italy) in 10% diethanolamine buffer (pH 9.8) were added. After approximately 30 min, the reaction was stopped with 1M NaOH solution (50 µL/well), and the absorbance was read in a multichannel ELISA reader (Tecan Sunrise, Männedorf, Switzerland) at 405 nm. The selected ELISA microplates, coating conditions, reagent dilutions, buffers, and incubation times were previously tested. The relationship between peptide concentrations and the absorbance values was represented graphically in absorbance inhibition percentage, and half-maximal response concentration values (IC50) were calculated.

[1] = Table S5, tri- and pentapeptides 9-22 and CSF114(Glc), representative MS serum (Figure 3)
[2] = Table S5, tri- and pentapeptides 9-22 and CSF114(Glc), representative MS serum (Figure 3), CI 95% in brackets, read-out: IC50(M)[CI95%]
[3] = serum MS1 (Figure S2A), one of three MS positive sera tested in parallel, read-out: IC50
[4] = serum MS3 (Figure S2C), read-out: IC50
[5] = shortened CSF114(Glc) series (Figure 2, Table S4), one representative positive MS patient's serum, inhibitor 1 × 10^−10 to 1 × 10^−4, absorbance 405 nm, non-linear regression least squares fit, read-out: IC50

Row | SMILES | Log1/IC50 ± StdError [1] | also measured
1 | CC(=O)N[C@@H](CCC(=O)O)C(=O)N[C@@H](CCCNC(=N)N)C(=O)N[C@@H](CC(=O)N[C@@H]1O[C@H](CO)[C@@H](O)[C@H](O)[C@H]1O)C(=O)NCC(=O)N[C@@H](Cc1c[nH]cn1)C(N)=O [Ac-ERN(Glc)GH-NH2(20), Ac-ERN(Glc)GH-NH2] (Ac-ERD(NH(β-D-Glc))GH-NH2) | 5.95 ± 0.112 | 
2 | CC(=O)N[C@@H](CCC(=O)O)C(=O)N[C@@H](CCCNC(=N)N)C(=O)N[C@@H](CC(=O)N[C@@H]1O[C@H](CO)[C@@H](O)[C@H](O)[C@H]1O)C(=O)NCC(=O)N[C@@H](CO)C(N)=O [Ac-ERN(Glc)GS-NH2(16), Ac-ERN(Glc)GS-NH2] (Ac-ERD(NH(β-D-Glc))GS-NH2) | 5.677 ± 0.1444 | 
3 | CC(=O)N[C@@H](CCC(=O)O)C(=O)N[C@@H](CCCNC(=N)N)C(=O)N[C@@H](CC(=O)N[C@@H]1O[C@H](CO)[C@@H](O)[C@H](O)[C@H]1O)C(=O)NCC(=O)N[C@H](C(N)=O)[C@@H](C)O [Ac-ERN(Glc)GT-NH2(17), Ac-ERN(Glc)GT-NH2] (Ac-ERD(NH(β-D-Glc))GT-NH2) | 6.23 ± 0.14 | 
4 | CC(=O)N[C@@H](CCC(=O)O)C(=O)N[C@@H](CCCNC(=N)N)C(=O)N[C@@H](CC(=O)N[C@@H]1O[C@H](CO)[C@@H](O)[C@H](O)[C@H]1O)C(=O)N[C@@H](CCCCN)C(=O)N[C@@H](Cc1c[nH]cn1)C(N)=O [Ac-ERN(Glc)KH-NH2(21), Ac-ERN(Glc)KH-NH2] (Ac-ERD(NH(β-D-Glc))KH-NH2) | 5.98 ± 0.1482 | 
5 | CC(=O)N[C@@H](CCC(=O)O)C(=O)N[C@@H](CCCNC(=N)N)C(=O)N[C@@H](CC(=O)N[C@@H]1O[C@H](CO)[C@@H](O)[C@H](O)[C@H]1O)C(=O)N[C@@H](CCCCN)C(=O)N[C@@H](CO)C(N)=O [Ac-ERN(Glc)KS-NH2(18), Ac-ERN(Glc)KS-NH2] (Ac-ERD(NH(β-D-Glc))KS-NH2) | 5.59 ± 0.19 | 
6 | CC(=O)N[C@@H](CCCCN)C(=O)NCC(=O)N[C@@H](CC(=O)N[C@@H]1O[C@H](CO)[C@@H](O)[C@H](O)[C@H]1O)C(=O)N[C@@H](C)C(=O)N[C@H](C(N)=O)[C@@H](C)O [Ac-KGN(Glc)AT-NH2(22), Ac-KGN(Glc)AT-NH2] (Ac-KGD(NH(β-D-Glc))AT-NH2) | 6.22 ± 0.07 | 
7 | CC(=O)N[C@@H](CC(=O)N[C@@H]1O[C@H](CO)[C@@H](O)[C@H](O)[C@H]1O)C(=O)N[C@@H](C)C(=O)N[C@H](C(N)=O)[C@@H](C)O [Ac-N(Glc)AT-NH2(15), Ac-N(Glc)AT-NH2] | 5.005 ± 0.05558 | IC50 [2]: 7e-06 M
8 | CC(=O)N[C@@H](CC(=O)N[C@@H]1O[C@H](CO)[C@@H](O)[C@H](O)[C@H]1O)C(=O)NCC(=O)N[C@@H](Cc1c[nH]cn1)C(N)=O [Ac-N(Glc)GH-NH2(13), Ac-N(Glc)GH-NH2] | 5.226 ± 0.0433 | IC50 [2]: 6.94e-06 M
9 | CC(=O)N[C@@H](CC(=O)N[C@@H]1O[C@H](CO)[C@@H](O)[C@H](O)[C@H]1O)C(=O)NCC(=O)N[C@@H](CO)C(N)=O [Ac-N(Glc)GS-NH2(9), Ac-N(Glc)GS-NH2] | 5.137 ± 0.063 | 
10 | CC(=O)N[C@@H](CC(=O)N[C@@H]1O[C@H](CO)[C@@H](O)[C@H](O)[C@H]1O)C(=O)NCC(=O)N[C@H](C(N)=O)[C@@H](C)O [Ac-N(Glc)GT-NH2(10), Ac-N(Glc)GT-NH2] | 5.129 ± 0.1170 | 
11 | CC(=O)N[C@@H](CC(=O)N[C@@H]1O[C@H](CO)[C@@H](O)[C@H](O)[C@H]1O)C(=O)N[C@@H](CCCCN)C(=O)N[C@@H](Cc1c[nH]cn1)C(N)=O [Ac-N(Glc)KH-NH2(14), Ac-N(Glc)KH-NH2] | 5.160 ± 0.01636 | 
12 | CC(=O)N[C@@H](CC(=O)N[C@@H]1O[C@H](CO)[C@@H](O)[C@H](O)[C@H]1O)C(=O)N[C@@H](CCCCN)C(=O)N[C@@H](CO)C(N)=O [Ac-N(Glc)KS-NH2(11), Ac-N(Glc)KS-NH2] | 5.942 ± 0.1911 | 
13 | CC(=O)N[C@@H](CC(=O)N[C@@H]1O[C@H](CO)[C@@H](O)[C@H](O)[C@H]1O)C(=O)N[C@@H](CCCCN)C(=O)N[C@H](C(N)=O)[C@@H](C)O [Ac-N(Glc)KT-NH2(12), Ac-N(Glc)KT-NH2] | 6.010 ± 0.06024 | 
14 | CSCC[C@H](NC(=O)[C@H](Cc1c[nH]c2ccccc12)NC(=O)CNC(=O)[C@H](Cc1ccc(O)cc1)NC(=O)[C@@H]1CCCN1C(=O)[C@H](C)NC(=O)[C@H](CC(C)C)NC(=O)[C@H](Cc1ccccc1)NC(=O)[C@@H](NC(=O)[C@H](CO)NC(=O)[C@H](Cc1c[nH]cn1)NC(=O)CNC(=O)[C@H](CC(=O)N[C@@H]1O[C@H](CO)[C@@H](O)[C@H](O)[C@H]1O)NC(=O)[C@H](CCCNC(=N)N)NC(=O)[C@H](CCC(=O)O)NC(=O)[C@@H](NC(=O)[C@H](CCCNC(=N)N)NC(=O)[C@@H]1CCCN1C(=O)[C@@H](N)[C@@H](C)O)C(C)C)C(C)C)C(=O)N[C@H](C(=O)N[C@@H](CCCCN)C(=O)O)C(C)C [CSF114(Glc) (1), CSF114(Glc), reference compound] | 6.46 ± 0.083 | Log1/IC50 ± Std Error: 6.14 ± 0.083; IC50 [3]: 5.2e-07 M; IC50 [4]: 5.12e-09 M; IC50 [5]: 9e-09 M
15 | CC(=O)N[C@@H](CC(=O)N[C@@H]1O[C@H](CO)[C@@H](O)[C@H](O)[C@H]1O)C(=O)NCCCOCCOCCOCCCNC(=O)CCC(=O)NCCCC[C@H](NC(=O)CCC(=O)NCCCOCCOCCOCCCNC(=O)[C@H](CC(=O)N[C@@H]1O[C@H](CO)[C@@H](O)[C@H](O)[C@H]1O)NC(C)=O)C(=O)NCCCC[C@H](NC(=O)[C@H](CCCCNC(=O)CCC(=O)NCCCOCCOCCOCCCNC(=O)[C@H](CC(=O)N[C@@H]1O[C@H](CO)[C@@H](O)[C@H](O)[C@H]1O)NC(C)=O)NC(=O)CCC(=O)NCCCOCCOCCOCCCNC(=O)[C@H](CC(=O)N[C@@H]1O[C@H](CO)[C@@H](O)[C@H](O)[C@H]1O)NC(C)=O)C(=O)NCCC(=O)O [N-Glc MEP (24)] |  | IC50 [3]: 2.15e-08 M; IC50 [4]: 2.15e-08 M
16 | CC(=O)N[C@H](C(=O)N[C@@H](CCC(=O)O)C(=O)N[C@@H](CCCNC(=N)N)C(=O)N[C@@H](CC(=O)N[C@@H]1O[C@H](CO)[C@@H](O)[C@H](O)[C@H]1O)C(=O)NCC(=O)N[C@@H](Cc1c[nH]cn1)C(=O)N[C@@H](CO)C(=O)N[C@H](C(N)=O)C(C)C)C(C)C [[Asn7(Glc)]CSF114(4‒11) (6), [Asn^7(Glc)] CSF114(4–11)] (Ac-VERD(NH(β-D-Glc))GHSV-NH2) |  | Log1/IC50 ± Std Error: 6.2 ± 0.29
17 | CC(=O)N[C@@H](CCC(=O)O)C(=O)N[C@@H](CCCNC(=N)N)C(=O)N[C@@H](CC(=O)N[C@@H]1O[C@H](CO)[C@@H](O)[C@H](O)[C@H]1O)C(=O)NCC(=O)N[C@@H](Cc1c[nH]cn1)C(=O)N[C@@H](CO)C(N)=O [[Asn7(Glc)]CSF114(5‒10) (7), [Asn^7(Glc)] CSF114(5–10)] (Ac-ERD(NH(β-D-Glc))GHS-NH2) |  | Log1/IC50 ± Std Error: 5.4 ± 0.10; IC50 [5]: 3.5e-06 M
18 | CC(=O)N[C@@H](CCCNC(=N)N)C(=O)N[C@@H](CC(=O)N[C@@H]1O[C@H](CO)[C@@H](O)[C@H](O)[C@H]1O)C(=O)NCC(=O)N[C@@H](Cc1c[nH]cn1)C(N)=O [[Asn7(Glc)]CSF114(6‒9) (8), [Asn^7(Glc)] CSF114(6–9)] (Ac-RD(NH(β-D-Glc))GH-NH2) |  | Log1/IC50 ± Std Error: 5.7 ± 0.25
